Experimental data reported in ChEMBL document CHEMBL1629642, “In vitro efficacy of ST246 against smallpox and monkeypox” (Antimicrob Agents Chemother, 2009).
pEC50: −log10 of the molar value. Active and inactive are the calls of the source. The calls are words filed in the database; no cut-off is given here.

Key:
[1] = test system: Variola virus; test: Antiviral activity against Variola virus BSH74-sol infected in african green monkey BSC-40 cells at 0.05 to 0.5 uM by IHC staining-based comet tail reduction assay; assay type: functional, organism-based
[2] = test system: Variola virus; test: Antiviral activity against Variola virus NEP73-175 infected in african green monkey BSC-40 cells at 0.05 to 0.5 uM by IHC staining-based comet tail reduction assay; assay type: functional, organism-based
[3] = test system: Monkeypox virus; test: Antiviral activity against Monkeypox virus V81-I-179 infected in african green monkey BSC-40 cells at 0.05 to 0.5 uM by IHC staining-based comet tail reduction assay; assay type: functional, organism-based
[4] = test system: Variola virus; test: Antiviral activity against Variola virus SUD47-juba infected in african green monkey BSC-40 cells at 0.015 uM by IHC staining-based comet tail reduction assay; assay type: functional, organism-based
[5] = test system: Variola virus; test: Antiviral activity against Variola virus BSH74-sol infected in african green monkey BSC-40 cells at 0.015 uM by IHC staining-based comet tail reduction assay; assay type: functional, organism-based
[6] = test system: Variola virus; test: Antiviral activity against Variola virus SOM77-ali infected in african green monkey BSC-40 cells at 0.015 uM by IHC staining-based comet tail reduction assay; assay type: functional, organism-based
[7] = test system: Monkeypox virus; test: Antiviral activity against Monkeypox virus V78-I-3945 infected in african green monkey BSC-40 cells at 0.015 uM by IHC staining-based comet tail reduction assay; assay type: functional, organism-based
[8] = test system: Monkeypox virus; test: Antiviral activity against Monkeypox virus 2003-USA-039 infected in african green monkey BSC-40 cells at 0.015 uM by IHC staining-based comet tail reduction assay; assay type: functional, organism-based
[9] = test system: Monkeypox virus; test: Antiviral activity against Monkeypox virus V1979-I-005 infected in african green monkey BSC-40 cells at 0.015 uM by IHC staining-based comet tail reduction assay; assay type: functional, organism-based
[10] = test system: Monkeypox virus; test: Antiviral activity against Monkeypox virus V78-I-3945 infected in african green monkey BSC-40 cells assessed as reduction in viral plaque formation at 0.015 uM uM by IHC staining-based plaque reduction assay; assay type: functional
[11] = test system: Variola virus; test: Antiviral activity against Variola virus SOM77-ali infected in african green monkey BSC-40 cells at 0.005 uM by IHC staining-based comet tail reduction assay; assay type: functional, organism-based
[12] = test system: Monkeypox virus; test: Antiviral activity against Monkeypox virus V78-I-3945 infected in african green monkey BSC-40 cells at 0.005 uM by IHC staining-based comet tail reduction assay; assay type: functional, organism-based
[13] = test system: Monkeypox virus; test: Antiviral activity against Monkeypox virus V81-I-179 infected in african green monkey BSC-40 cells at 0.005 uM by IHC staining-based comet tail reduction assay; assay type: functional, organism-based
[14] = test system: Monkeypox virus; test: Antiviral activity against Monkeypox virus 2003-USA-039 infected in african green monkey BSC-40 cells assessed as reduction in viral plaque formation at 0.015 uM uM by IHC staining-based plaque reduction assay; assay type: functional
[15] = test system: Variola virus; test: Antiviral activity against Variola virus BRZ66-39 infected in african green monkey BSC-40 cells at 0.005 uM uM by IHC staining-based plaque reduction assay; assay type: functional, organism-based
[16] = test system: Variola virus; test: Antiviral activity against Variola virus SUD47-juba infected in african green monkey BSC-40 cells at 0.005 uM uM by IHC staining-based plaque reduction assay; assay type: functional, organism-based
[17] = test system: Variola virus; test: Antiviral activity against Variola virus BSH74-sol infected in african green monkey BSC-40 cells at 0.005 uM uM by IHC staining-based plaque reduction assay; assay type: functional, organism-based
[18] = test system: Variola virus; test: Antiviral activity against Variola virus NEP73-175 infected in african green monkey BSC-40 cells at 0.005 uM uM by IHC staining-based plaque reduction assay; assay type: functional, organism-based
[19] = test system: Monkeypox virus; test: Antiviral activity against Monkeypox virus V1979-I-005 infected in african green monkey BSC-40 cells at 0.005 uM by IHC staining-based comet tail reduction assay; assay type: functional, organism-based
[20] = test system: Variola virus; test: Antiviral activity against Variola virus SLN68-258 infected in african green monkey BSC-40 cells at 0.05 to 5 uM assessed as reduction in virus-induced cytopathic effect; assay type: functional, organism-based
[21] = test system: Monkeypox virus; test: Antiviral activity against Monkeypox virus V81-I-179 infected in african green monkey BSC-40 cells at 0.005 uM uM by IHC staining-based plaque reduction assay; assay type: functional, organism-based
[22] = test system: Variola virus; test: Antiviral activity against Variola virus BRZ66-39 infected in african green monkey BSC-40 cells at 0.05 to 0.5 uM by IHC staining-based comet tail reduction assay; assay type: functional, organism-based
[23] = test system: Variola virus; test: Antiviral activity against Variola virus SOM77-ali infected in african green monkey BSC-40 cells at 0.05 to 5 uM assessed as reduction in virus-induced cytopathic effect; assay type: functional, organism-based
[24] = test system: Variola virus; test: Antiviral activity against Variola virus SLN68-258 infected in african green monkey BSC-40 cells at 0.015 uM assessed as reduction in virus-induced cytopathic effect; assay type: functional, organism-based
[25] = test system: Variola virus; test: Antiviral activity against Variola virus SUD47-juba infected in african green monkey BSC-40 cells at 0.015 uM assessed as reduction in virus-induced cytopathic effect; assay type: functional, organism-based
[26] = test system: Variola virus; test: Antiviral activity against Variola virus NEP73-175 infected in african green monkey BSC-40 cells at 0.005 uM assessed as reduction in virus-induced cytopathic effect; assay type: functional, organism-based
[27] = test system: Monkeypox virus; test: Antiviral activity against Monkeypox virus V81-I-179 infected in african green monkey BSC-40 cells assessed as reduction in virus-induced cytopathic effect at 0.005 uM; assay type: functional, organism-based
[28] = test system: Monkeypox virus; test: Antiviral activity against Monkeypox virus 2003-USA-039 infected in african green monkey BSC-40 cells assessed as reduction in virus-induced cytopathic effect at 0.005 uM; assay type: functional, organism-based
[29] = test system: Monkeypox virus; test: Antiviral activity against Monkeypox virus V77-I-823 infected in african green monkey BSC-40 cells assessed as reduction in virus-induced cytopathic effect at 0.005 uM; assay type: functional, organism-based
[30] = test system: Monkeypox virus; test: Antiviral activity against Monkeypox virus V1979-I-005 infected in african green monkey BSC-40 cells assessed as reduction in virus-induced cytopathic effect at 0.005 uM; assay type: functional, organism-based
[31] = test system: Monkeypox virus; test: Antiviral activity against Monkeypox virus infected in african green monkey vero cells assessed as reduction in virus-induced cytopathic effect; assay type: functional, organism-based
[32] = test system: Camelpox virus; test: Antiviral activity against Camelpox virus infected in african green monkey Vero cells assessed as reduction in virus-induced cytopathic effect; assay type: functional, organism-based
[33] = test system: Variola virus; test: Antiviral activity against Variola virus SLN68-258 infected in african green monkey BSC-40 cells at 0.05 to 0.5 uM by IHC staining-based plaque reduction assay; assay type: functional, organism-based
[34] = test system: Monkeypox virus; test: Antiviral activity against Monkeypox virus V81-I-179 infected in african green monkey BSC-40 cells at 0.05 to 0.5 uM by IHC staining-based plaque reduction assay; assay type: functional, organism-based
[35] = test system: Variola virus; test: Antiviral activity against Variola virus BRZ66-39 infected in african green monkey BSC-40 cells assessed as reduction in viral plaque formation at 0.015 uM uM by IHC staining-based plaque reduction assay; assay type: functional
[36] = test system: Variola virus; test: Antiviral activity against Variola virus SLN68-258 infected in african green monkey BSC-40 cells assessed as reduction in viral plaque formation at 0.015 uM uM by IHC staining-based plaque reduction assay; assay type: functional
[37] = test system: Variola virus; test: microbe, parasite or virus in culture; details: BSH74-sol, BSC-40
[38] = test system: Variola virus; test: microbe, parasite or virus in culture; details: NEP73-175, BSC-40

For `O=C(NN1C(=O)[C@@H]2[C@@H]3C=C[C@@H]([C@H]4C[C@@H]34)[C@@H]2C1=O)c1ccc(C(F)(F)F)cc1` [TECOVIRIMAT], the Activity [1] was “Active”, the Activity [2] was “Active” and the Activity [3] was “Active”. The Activity [4] was “Active”, the Activity [5] was “Active” and the Activity [6] was “Active”. For the same compound, the Activity [7] was “Active”, the Activity [8] was “Active” and the Activity [9] was “Active”. For the same compound, the “inhibition (INH)” value [10] was 50%, the Activity [11] was “inactive” and the Activity [12] was “inactive”. The Activity [13] was “inactive”, the “inhibition (INH)” value [14] was 50% and the Activity [15] was “inactive”. For the same compound, the Activity [16] was “inactive”, the Activity [17] was “inactive” and the Activity [18] was “inactive”. For the same compound, the Activity [19] was “inactive”, the Activity [20] was “Active” and the Activity [21] was “inactive”. The Activity [22] was “Active”, the Activity [23] was “Active” and the Activity [24] was “Active”. The Activity [25] was “Active”, the Activity [26] was “inactive” and the Activity [27] was “inactive”. For the same compound, the Activity [28] was “inactive”, the Activity [29] was “inactive” and the Activity [30] was “inactive”. The Activity [31] was “Active”, the Activity [32] was “Active” and the Activity [33] was “Active”. The Activity [34] was “Active”, the “inhibition (INH)” value [35] was 50% and the “inhibition (INH)” value [36] was 50%. The pEC50 [37] was 7.55 and the pEC50 [38] was 7.68.
